What was measured:
Assay type in all cases: cell-based, human
[1] = tested on: CRC cell lines (HT-29, LS411N, and SW620); assay: Trypan Blue exclusion viability assay, CRC cell lines; settings: 10 μM, 48 hours
Method: FIGS. 4A-4F show AP-4-139B is efficacious as a single agent against human CRC in vitro and in vivo. FIG. 4A: Three CRC cell lines (HT-29, LS411N, and SW620) were treated with 10 μM of PET-16 or AP-4-139B for 48 hours. Cell were then subjected to viability assays using Trypan Blue exclusion. *** p<0.001. […] FIGS. 4B-4C: A panel of six CRC cell lines (SW620, HT-29, HCT 116+/−p53, RKO, and LS411N) were plated at a density of 1,000 cells per well in 96-well plates. The next day, cells were treated with the indicated inhibitors for 72 hours. Cells were then subjected to the Alamar Blue cell viability assays. Shown are representative IC50 values of an average of six technical replicates and two biological replicates. FIG. 4D: 2.5×10^6 HT-29 cells were injected subcutaneously into the right flank of NSG mice. Once tumors reached an approximate volume of 100 mm^3, mice were separated randomly into two groups: control vs. AP-4-139B. Mice were treated with 12.5 mg/kg AP-4-139B three times a week. All mice were euthanized 22 days after the start of treatment. Tumor volumes were recorded using digital calipers and using the formula v=length×width^2×0.52. *** p<0.001. n=10 mice per group. FIG. 4E: Immunohistochemistry (IHC) analysis of HT-29 xenograft tumors treated with AP-4-139B. […]

[2] = tested on: 1205Lu and HT-29 tumor cell lines; assay: Seahorse XF Cell Mito Stress Test, tumor cell lines; settings: 500 nM (sublethal), 24 hours
Method: (§1) FIG. 2A: IMR90 cells (non-transformed fibroblasts), 1205Lu (melanoma), and HT-29 (CRC) cancer cells were treated with sub-lethal doses (500 nM) of the HSP70 inhibitors PET-16 (positive control) or AP-4-139B for 24 hours. Cells were then subjected to the Seahorse Mito Stress Test Assay. Injections were Oligomycin (1 μM, line A), FCPP (0.5-1 μM, line B), and Rotenone/Antimycin A (1 μM, line C). Each graphical representation indicates the mean±standard deviation of a minimum of 5 technical replicates. […] Each experiment was performed in triplicate and independently repeated twice. FIGS. 2B-2D: Basal Oxygen Consumption Rate (ORC) (FIG. 2B), Maximal OCR (FIG. 2C), and ATP production (FIG. 2D) were analyzed in IMR90 fibroblasts, non-transformed colonic epithelial cells (CCD 841 CoN), 1205Lu melanoma cells and HT-29 CRC cells, in the presence or absence of 500 nM HSP70 inhibitors or negative control (VY-3-277). All experiments were performed in triplicate, with each group containing 5-6 technical replicates. ** p<0.01, *** p<0.001, n.s. not significant.
(§2) The XF Cell Mito Stress Test was performed. […] For extracellular ATP release, ATP was measured using the CellTiter-Glo Kit (Promega catalog #G7570). […] 10 μl of CellTiter-Glo Reaction Mix was then mixed with 10 μl of culture media; the luminescence signal was detected using a luminometer.

[3] = tested on: IMR90 and CCD 841 CoN cells; assay: Seahorse XF Cell Mito Stress Test, normal cells; settings: 500 nM (sublethal), 24 hours
Method: as §1, §2

| Structure (SMILES) | decrease of CRC cell viability [1] | basal oxygen consumption rate and ATP production in tumor cell lines [2] | mitochondrial function in normal cells [3] |
| --- | --- | --- | --- |
| c1ccc(-c2cn3nc(CCCCCC[P+](c4ccccc4)(c4ccccc4)c4ccccc4)sc3n2)cc1 [AP-4-139B, Triphenyl(6-(6-phenylimidazo[2,1-b][1,3,4]thiadiazol-2-yl)hexyl)phosphonium bromide] | markedly more cytotoxic | reduced basal oxygen consumption rate and ATP production | largely unaffected |
| C(#C[P+](c1ccccc1)(c1ccccc1)c1ccccc1)c1ccccc1 [PET-16, Triphenyl(phenylethynyl)phosphonium bromide, reference compound] | modest ability to decrease CRC cell viability | minimal activity | largely unaffected |

— patent US12616753B2, “HSP70 inhibitors and methods of using same” (THE WISTAR INSTITUTE, priority 2020, dated 2026)
